The text below walks through data of ChEMBL document CHEMBL1135183, “Design and synthesis of C-8 linked pyrrolobenzodiazepine-naphthalimide hybrids as anti-tumour agents” (2002).

What all share (format): functional
The test system of experiment [1] is Panel ovarian (Carcinoma cell lines). As to the kind of experiment: Concentration of compound causing 50% lethality in Ovarian cell lines was determined. As to conditions: Homo sapiens, read-out: Log LC50 (the source's name) (converted).
The next experiment has as its system NSCLC. The experiment in a line: Concentration of compound causing 50% lethality in Non-small-cell lung cell lines was determined. The settings on record: Homo sapiens, read-out: Log LC50 (the source's name) (converted).
Experiment [2] concerns Panel colon (Carcinoma cell lines). The experiment in a line: Concentration of compound causing 50% lethality in Colon cell lines was determined. The settings on record: Homo sapiens.
For experiment [3], the system named is Panel breast (Carcinoma cell lines). The experiment in a line: Concentration of compound causing 50% lethality in Breast cell lines was determined. As to conditions: Homo sapiens, read-out: Log LC50 (the source's name) (converted).
Another experiment has as its system leukaemia cell line. As to the kind of experiment: Concentration of compound causing 50% lethality in Leukemia cell lines was determined. As to conditions: Homo sapiens, read-out: Log LC50 (the source's name) (converted).
Experiment [4] concerns Panel renal (Carcinoma cell lines). The experiment in a line: Concentration of compound causing 50% lethality in Renal cell lines was determined. As to conditions: Homo sapiens.
Experiment [5] concerns Panel CNS (Carcinoma cell lines). As to the kind of experiment: Concentration of compound causing 50% lethality in CNS cell lines was determined. The settings on record: Homo sapiens, read-out: Log LC50 (the source's name) (converted).
In experiment [6] the test system is Panel melanoma (Carcinoma cell lines). As to the kind of experiment: Concentration of compound causing 50% lethality in Melanoma cell lines was determined. As to conditions: Homo sapiens, read-out: Log LC50 (the source's name) (converted).
Experiment [7] deals with Panel prostate (Carcinoma cell lines). As to the kind of experiment: Concentration of compound causing 50% lethality in Prostate cell lines was determined. As to conditions: Homo sapiens, read-out: Log LC50 (the source's name) (converted).

With `COc1cc2c(cc1OCCCCCN1C(=O)c3cccc4cccc(c34)C1=O)N=C[C@@H]1CCCN1C2=O`, the CC50 in [1] was 81.3 µM; in the experiment with NSCLC, 69.2 µM; in experiment [3], 60.3 µM; in the experiment with leukaemia cell line it was 72.4 µM; in experiment [5] it was 72.4 µM; in experiment [6], 58.9 µM. For the same molecule, the CC50 in [7] was 61.7 µM. Also, in [2], the median lethal concentration (LC50) (usually the concentration lethal to half of the exposed cells or organisms) was 45.7 µM. Also, in experiment [4], the LC50 (concentration causing 50% cell lethality) is 30.9 µM.

Regarding `COc1cc2c(cc1OCCCCCCCN1C(=O)c3cccc4cccc(c34)C1=O)N=C[C@@H]1CCCN1C2=O`, the CC50 was 87.1 µM in experiment [1]; 45.7 µM in the experiment with NSCLC; 43.7 µM in [3]; over 100 µM in the experiment on leukaemia cell line; over 100 µM in [5]; 37.2 µM in experiment [6]. Moreover, the CC50 in experiment [7] was over 100 µM. In [2], this molecule gave a median lethal concentration (LC50) of 38.9 µM. The molecule further showed an LC50 (concentration causing 50% cell lethality) in [4] of 93.3 µM.

With `COc1cc2c(cc1OCCCCCCCCCCCCCCCCCN1C(=O)c3cccc4cccc(c34)C1=O)N=C[C@@H]1CCCN1C2=O`, the CC50 is 77.6 µM in [1]; 83.2 µM in the experiment on NSCLC; 85.1 µM in [3]; 61.7 µM in the experiment on leukaemia cell line; 51.3 µM in experiment [5]; 64.6 µM in [6]. Also, in experiment [7], the CC50 was 66.1 µM. Besides, the LC50 in experiment [2] is 75.9 µM. The LC50 (concentration causing 50% cell lethality) in experiment [4] was 81.3 µM.

`COc1cc2c(cc1OCCCCCCCCCCCCCN1C(=O)c3cccc4cccc(c34)C1=O)N=C[C@@H]1CCCN1C2=O`: the CC50 in experiment [1] is 85.1 µM; in the experiment with NSCLC, over 100 µM; in experiment [3] it was 95.5 µM; with leukaemia cell line, 77.6 µM; in experiment [5], 77.6 µM; in [6] it was 81.3 µM. Moreover, the CC50 in [7] is 93.3 µM. The median lethal concentration (LC50) in experiment [2] was 83.2 µM. Moreover, the LC50 (concentration causing 50% cell lethality) in [4] was 95.5 µM.

Consider `COc1cc2c(cc1OCCCN1C(=O)c3cccc4cccc(c34)C1=O)N=C[C@@H]1CCCN1C2=O`, for which the CC50 in experiment [1] was 97.7 µM; in the experiment with NSCLC it was 89.1 µM; in [3], over 100 µM; with leukaemia cell line, 77.6 µM; in experiment [5], over 100 µM; in [6], 97.7 µM. Besides, the CC50 in [7] is over 100 µM. Further, the LC50 in experiment [2] was 97.7 µM. The same molecule showed an LC50 (concentration causing 50% cell lethality) in experiment [4] of 91.2 µM.
